Reference: patent US9365868B2, “Fermentation process for producing isopropanol using a recombinant microorganism” (LANZATECH NEW ZEALAND LIMITED, priority 2011, dated 2016)

Assays:
[1] = test system: Clostridium autoethanogenum DSM23693; experiment: Toxicity of acetone and isopropanol on growing cultures; assay type: cell-based; conditions: at concentrations as high as 5%
Source text: Several metabolites such as alcohols (ethanol and butanol) or acids (acetic acid and butyric acid) are known to be toxic for bacteria in high concentrations and thus limit their biotechnological production [Alsaker K V, Parades C, Papoutsakis E T: Metabolite stress and tolerance in the production of biofuels and chemicals—systems analysis of butanol, butyrate, and Acetate Stresses in the Anaerobe Clostridium acetobutylicum. Biotechnol Bioeng, 2009, 105: 1131-1147]. To see if acetone and isopropanol have a toxic effect on cultures, growth experiments were carried out in 50 ml PETC media (Table 2) in serum bottles, adding different concentrations of acetone (FIG. 12) and isopropanol (FIG. 13) to growing cultures of Clostridium autoethanogenum DSM23693.

[2] = test system: E. coli; experiment: Serum bottle experiments with plasmid constructs, sugar as sole substrate; assay type: cell-based, Escherichia coli; conditions: Organism E. coli, 'Detected' = by GC qualitatively
Method: (§1) Constructed expression plasmids pMTL85245-kivd-adh2 and pMTL85245-kivd were transformed into E. coli strain JW3350-2 and prepared for transformation in C. autoethanogenum DSM23693, which was performed as described above. […] In serum bottle experiments, highest isopropanol concentrations from CO-containing steel mill gas were 0.050-0.064 g/L for both expression plasmids (FIGS. 65 and 66).
(§2) All plasmid construct were tested in E. coli and C. autoethanogenum DSM23693 using serum bottle experiments with sugar (E. coli) or CO-containing steel mill gas (C. autoethanogenum) as sole substrate. With all combinations tested, acetone and isopropanol production was measured when expressed heterologously in C. autoethanogenum, while in E. coli acetone production only occurred with few combinations and an alcohol dehydrogenase gene was needed for isopropanol production (Table 21). […] In C. autoethanogenum, acetone and isopropanol production even occurred with expressing the decarboxylase as only heterologous gene, indicating CoA-transferase activity. FIG. 4 illustrates the proposed pathway and Table 21 of acetone and isopropanol formation from CO and FIG. 73 gives an overview of combinations of Clostridial pathway genes and codon-optimized genes for Alpha-ketoacid decarboxylase Kivd from L lactis and Alcohol dehydrogenase Adh2 from S. cerevisiae tested in E. coli and C. autoethanogenum.

[3] = test system: C. autoethanogenum DSM23693; experiment: Bottle growth experiments on CO-containing gas, acetone/isopropanol production from expression plasmids; assay type: cell-based, Clostridium autoethanogenum; conditions: Organism C. autoethanogenum, Substrate CO; for Acetone (g/L): 'Detected' = by GC qualitatively
Method: HPLC analysis of acetone, isopropanol and other metabolites was performed using an Agilent 1100 Series HPLC system equipped with a RID operated at 35° C. (Refractive Index Detector) and an Alltech IOA-2000 Organic acid column (150×6.5 mm, particle size 5 μm) kept at 60° C. Slightly acidified water was used (0.005 M H2SO4) as mobile phase with a flow rate of 0.7 ml/min. To remove proteins and other cell residues, 400 μl samples were mixed with 100 μl of a 2% (w/v) 5-Sulfosalicylic acid and centrifuged at 14,000×g for 3 min to separate precipitated residues. 10 μl of the supernatant were then injected into the HPLC for analyses.
GC analysis of acetone, isopropanol and other metabolites was performed using an Agilent 6890N headspace GC equipped with a Supelco PDMS 100 1 cm fiber, an Alltech EC-1000 (30 m×0.25 mm×0.25 μm) column, and a flame ionization detector (FID). 5 ml samples were transferred into a Hungate tube, heated to 40° C. in a water bath and exposed to the fiber for exactly 5 min. The injector was kept at 250° C. and helium with a constant flow of 1 ml/min was used as carrier gas. The oven program was 40° C. for 5 min, followed by an increase of 10° C./min up to 200° C. The temperature was then further increased to 220° C. with a rate of 50° C./min followed by a 5 min hold this temperature, before the temperature was decreased to 40° C. with a rate of 50° C./min and a final 1 min hold. The FID was kept at 250° C. with 40 ml/min hydrogen, 450 ml/min air and 15 ml/min nitrogen as make up gas.
Growth experiments were carried out with transformed C. autoethanogenum DSM23693 and C. ljungdahlii DSM 13528 carrying plasmid pMTL85147-thlA-ctfAB-adc in 250 ml PETC media (Table 2; without fructose and yeast extract) in 1 l Schott bottles with rubber stoppers and 30 psi steel mill gas (collected from New Zealand Steel site in Glenbrook, NZ; composition: 44% CO, 32% N2, 22% CO2, 2% H2) in the headspace as sole energy and carbon source. Acetone production was confirmed with both strains using HPLC and GC analysis. […] Using appropriate conditions, the produced acetone can then be further converted to isopropanol.
Therefore, both cultures were re-gassed with 30 psi fresh steel-mill gas after 48 h of growth and also re-inoculated. While biomass didn't increase much further, some of the produced acetone got converted into isopropanol within 24 hours (Table 16).
as §1, §2

[4] = test system: C. autoethanogenum DSM23693; experiment: Experiment B: bioreactor fermentation on corex gas with cell retention; assay type: cell-based, Clostridium autoethanogenum; conditions: corex gas 40% CO, continuous mode with membrane cell retention
Method: Fermentations with C. autoethanogenum DSM23693 carrying the vector pMTL83147 thl-ctfAB-adc-adh2 were carried out in 1.5 L bioreactors at 37° C. and CO-containing steel mill gas. The fermenter was fed with corex gas (40% CO, 15% H2, 15% CO2, 30% N2) as sole energy and carbon source as described below. A defined medium was used containing per litre: MgCl, CaCl2 (0.5 mM), KCl (3 mM), H3PO4 (5 mM), Fe (100 μM), Ni, Zn (5 μM), Mn, B, W, Mo, Se (2 μM) was prepared for culture growth. The media was transferred into the bioreactor and autoclaved at 121° C. for 45 minutes. After autoclaving, the medium was supplemented with Thiamine, Pantothenate (0.05 mg), Biotin (0.02 mg) and reduced with 3 mM Cysteine-HCl. To achieve anaerobic conditions the reactor vessel was sparged with nitrogen through a 0.2 μm filter. […]
Metabolites concentrations were measured using Agilent 1100 Series HPLC system equipped with a RID operated at 35° C. […] The presence of Acetone and Isopropanol was also measured using Agilent 6890N headspace GC equipped with a Supelco PDMS 100 1 cm fiber, an Alltech EC-1000 (30 m×0.25 mm×0.25 μm) column, and a flame ionization detector (FID). The composition of the gas inflows and outflows was measured using a Varian CP-4900 micro GC with two installed channels. […] Gas analysis was automated and measured hourly.

[5] = test system: Clostridium autoethanogenum DSM23693; experiment: Experiment A: continuous fermentation on steel mill gas; assay type: cell-based
Method: Clostridium autoethanogenum DSM23693 carrying the vector pMTL83147 thl-ctfAB-adc-adh2 was grown at 37° C. under mill gas (50% CO, 18% CO2, 2% H2, and 30% N2) was continuously fed into the bioreactor. The gas flow was initially set at 80 ml/min, increasing to 200 ml/min over the course of the experiment, while the agitation was increased from 250 rpm to 750 rpm. Na2S was dosed into the bioreactor at 0.20 ml/hr, increasing to 0.4 ml/hr. The bioreactor was switched to a continuous mode at a rate of 1.0 ml/min (Dilution rate 0.96 d^−1) once the OD600 reached 0.17.
Metabolites concentrations were measured using Agilent 1100 Series HPLC system equipped with a RID operated at 35° C. (Refractive Index Detector) and an Alltech IOA-2000 Organic acid column (150×6.5 mm, particle size 5 μm) kept at 60° C. The presence of Acetone and Isopropanol was also measured using Agilent 6890N headspace GC equipped with a Supelco PDMS 100 1 cm fiber, an Alltech EC-1000 (30 m×0.25 mm×0.25 μm) column, and a flame ionization detector (FID). The composition of the gas inflows and outflows was measured using a Varian CP-4900 micro GC with two installed channels. Channel 1 was a 10 m Mol-sieve column running at 70° C., 200 kPa argon and a backflush time of 4.2 s, while channel 2 was a 10 m PPQ column running at 90° C., 150 kPa helium and no backflush. The injector temperature for both channels was 70° C. Sampling of metabolites was performed daily. Gas analysis was automated and measured hourly.
The growth and metabolite profile of Clostridium autoethanogenum DSM23693 carrying the vector pMTL83147 thl-ctfAB-adc-adh2 in a continuous fermentation over 31 days is shown in FIG. 75. The fermentation ran as a batch fermentation from inoculation to day 6. At day 7 the fermentation was switched to continuous fermentation. The increase in acetate concentration coupled with a decrease in ethanol concentration during continuous fermentation seems to have triggered a significant increase in isopropanol production. […] A GC sample was taken during the run, at day 19.

[6] = continuous fermentation over 31 days, mill gas 50% CO

Molecule	inhibition of growth rate [1]	Acetone [2] [g/L]	Isopropanol [3] [g/L]	Acetone (g/L) [3]	also measured
CC(C)=O [acetone]	only slight inhibition of growth rate	–	–	–	–
CC(C)O [isopropanol]	only slight inhibition of growth rate	–	–	–	–
pMTL83147-thlA-ctfAB-adc-P-kivd-adh2: expression plasmid with thlA, ctfAB, adc and Ppta-ack-kivd-adh2, Seq. ID. 101	–	0.076	0.043	Detected	–
pMTL83147-thlA-ctfAB-adc-adh2: expression plasmid with thlA, ctfAB, adc and Adh2 from S. cerevisiae, Seq. ID. No. 98	–	0.040	0.648	Detected	isopropanol concentration reached [4]: 0.37 g per Litre; presence of the plasmid by PCR ([5]; checked regularly throughout the fermentation): found to be present throughout the fermentation; Isopropanol production rate [5, 6]: 0.7 g per litre per day; isopropanol concentration reached [5, 6]: 0.250 g per litre
pMTL85147-thlA-ctfAB-adc-kivd: combination plasmid of Clostridial genes and kivd as labelled in Table 21; probably Seq. ID. No. 95	–	–	0.091	Detected	Acetone (g/L) [2]: Detected
